Patent US10219516B2, “Molecules having pesticidal utility, and intermediates, compositions, and processes, related thereto” (priority 2015, dated 2019)

What was measured:
Assay type in all cases: in vivo
[1] = system: Yellow Fever Mosquito (Aedes aegypti, AEDSAE); assay: Bioassay on Yellow Fever Mosquito (YFM), 96-well plate larval assay; conditions: Yellow Fever Mosquito, 96-well plate larval assay
Summary of the method: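 Aedes aegypti larvae (about 1 day old) in liver-powder water were added to plates dispensed from DMSO master plates (4000 ppm stock) diluted with 90:10 water/acetone; six replicate plates per master. Lidded plates were held at room temperature for 3 days, then each well was scored for mortality.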

[2] = system: Cabbage Looper (Trichoplusia ni, TRIPNI); assay: Bioassay on Cabbage Looper (CL), 128-well diet tray assay; conditions: Trichoplusia ni; Cabbage Looper, 128-well diet tray assay; read-out: CL rating
Summary of the method: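 Mortality of second instar larvae exposed to diet coated with 50 μg/cm^2 compound (acetone-water 90:10 vehicle, dried); 25° C., 5–7 days.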

[3] = system: Beet Armyworm (Spodoptera exigua, LAPHEG); assay: Bioassay on Beet Armyworm (BAW), 128-well diet tray assay; conditions: Beet Armyworm, 128-well diet tray assay, read-out: BAW rating
Summary of the method: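 Diet in each of eight wells received 50 μg/cm^2 of test molecule (90:10 acetone-water, dried), then one to five second-instar larvae were added. Mortality (%) was scored after five to seven days at 25° C. under 14:10 light-dark and averaged across the wells.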

Compound	YFM rating [1]	pest or weed control at 50 µg/cm2 [2] [%]	pest or weed control at 50 µg/cm2 [3] [%]
Nc1c(F)cc(NC(=O)c2cc(NC(=O)[C@H]3[C@H](c4cc(Cl)cc(Cl)c4)C3(Cl)Cl)ccc2Cl)cc1F [F378, N-(4-Amino-3,5-difluorophenyl)-2-chloro-5-((1R,3R)-2,2-dichloro-3-(3,5-dichlorophenyl)cyclopropane-1-carboxamido)benzamide]	B (More than 0-Less than 80)	50 to 100	50 to 100
Nc1c(F)cc(NC(=O)c2cc(NC(=O)[C@H]3[C@H](c4ccc(Cl)c(Cl)c4)C3(Cl)Cl)ccc2Cl)cc1F [F379, N-(4-Amino-3,5-difluorophenyl)-2-chloro-5-((1R,3R)-2,2-dichloro-3-(3,4-dichlorophenyl)cyclopropane-1-carboxamido)benzamide]	A (80-100)	50 to 100	50 to 100
Nc1c(F)cc(NC(=O)c2cc(NC(=O)[C@H]3[C@H](c4cc(Cl)c(Cl)c(Cl)c4)C3(Cl)Cl)ccc2Cl)cc1F [F380, N-(4-Amino-3,5-difluorophenyl)-2-chloro-5-((1R,3R)-2,2-dichloro-3-(3,4,5-trichlorophenyl)cyclopropane-1-carboxamido)benzamide]	A (80-100)	50 to 100	50 to 100
Nc1c(F)cc(NC(=O)c2cc(NC(=O)[C@H]3[C@H](c4ccc(F)c(Cl)c4)C3(Cl)Cl)ccc2Cl)cc1F [F381, N-(4-Amino-3,5-difluorophenyl)-2-chloro-5-((1R,3R)-2,2-dichloro-3-(3-chloro-4-fluorophenyl)cyclopropane-1-carboxamido)benzamide]	A (80-100)	50 to 100	50 to 100
Nc1cc(NC(=O)c2cc(NC(=O)[C@H]3[C@H](c4cc(Cl)c(Cl)c(Cl)c4)C3(Cl)Cl)ccc2Cl)c(F)cc1F [F402, N-(5-Amino-2,4-difluorophenyl)-2-chloro-5-((1R,3R)-2,2-dichloro-3-(3,4,5-trichlorophenyl)cyclopropane-1-carboxamido)benzamide]	A (80-100)	50 to 100	50 to 100
Nc1cc(NC(=O)c2cc(NC(=O)[C@H]3[C@H](c4ccc(F)c(Cl)c4)C3(Cl)Cl)ccc2Cl)c(F)cc1F [F403, N-(5-Amino-2,4-difluorophenyl)-2-chloro-5-((1R,3R)-2,2-dichloro-3-(3-chloro-4-fluorophenyl)cyclopropane-1-carboxamido)benzamide]	A (80-100)	50 to 100	50 to 100
Nc1c(F)cc(F)cc1NC(=O)c1cc(NC(=O)[C@H]2[C@H](c3cc(Cl)c(Cl)c(Cl)c3)C2(Cl)Cl)ccc1Cl [F404, N-(2-Amino-3,5-difluorophenyl)-2-chloro-5-((1R,3R)-2,2-dichloro-3-(3,4,5-trichlorophenyl)cyclopropane-1-carboxamido)benzamide]	A (80-100)	50 to 100	50 to 100
Nc1ccc(F)cc1NC(=O)c1cc(NC(=O)[C@H]2[C@H](c3cc(Cl)c(Cl)c(Cl)c3)C2(Cl)Cl)ccc1Cl [F405, N-(2-Amino-5-fluorophenyl)-2-chloro-5-((1R,3R)-2,2-dichloro-3-(3,4,5-trichlorophenyl)cyclopropane-1-carboxamido)benzamide]	A (80-100)	50 to 100	50 to 100
Nc1cc(F)cc(F)c1NC(=O)c1cc(NC(=O)[C@H]2[C@H](c3cc(Cl)cc(Cl)c3)C2(Cl)Cl)ccc1Cl [F406, N-(2-Amino-4,6-difluorophenyl)-2-chloro-5-((1R,3R)-2,2-dichloro-3-(3,5-dichlorophenyl)cyclopropane-1-carboxamido)benzamide]	A (80-100)	50 to 100	50 to 100
Nc1cc(F)cc(F)c1NC(=O)c1cc(NC(=O)[C@H]2[C@H](c3ccc(Cl)c(Cl)c3)C2(Cl)Cl)ccc1Cl [F407, N-(2-amino-4,6-difluorophenyl)-2-chloro-5-((1R,3R)-2,2-dichloro-3-(3,4-dichlorophenyl)cyclopropane-1-carboxamido)benzamide]	A (80-100)	50 to 100	50 to 100
Nc1cc(F)cc(F)c1NC(=O)c1cc(NC(=O)[C@H]2[C@H](c3cc(Cl)c(Cl)c(Cl)c3)C2(Cl)Cl)ccc1Cl [F408, N-(2-Amino-4,6-difluorophenyl)-2-chloro-5-((1R,3R)-2,2-dichloro-3-(3,4,5-trichlorophenyl)cyclopropane-1-carboxamido)benzamide]	A (80-100)	50 to 100	50 to 100
Nc1cc(F)cc(F)c1NC(=O)c1cc(NC(=O)[C@H]2[C@H](c3ccc(F)c(Cl)c3)C2(Cl)Cl)ccc1Cl [F409, N-(2-Amino-4,6-difluorophenyl)-2-chloro-5-((1R,3R)-2,2-dichloro-3-(3-chloro-4-fluorophenyl)cyclopropane-1-carboxamido)benzamide]	A (80-100)	50 to 100	50 to 100
O=C(Nc1cc(F)cc([N+](=O)[O-])c1)c1cc(NC(=O)[C@H]2[C@H](c3cc(Cl)c(Cl)c(Cl)c3)C2(Cl)Cl)ccc1Cl [F417, 2-Chloro-5-((1R,3R)-2,2-dichloro-3-(3,4,5-trichlorophenyl)cyclopropane-1-carboxamido)-N-(3-fluoro-5-nitrophenyl)benzamide]	A (80-100)	50 to 100	50 to 100
O=C(Nc1cc(F)cc([N+](=O)[O-])c1)c1cc(NC(=O)[C@H]2[C@H](c3ccc(F)c(Cl)c3)C2(Cl)Cl)ccc1Cl [F418, 2-Chloro-5-((1R,3R)-2,2-dichloro-3-(3-chloro-4-fluorophenyl)cyclopropane-1-carboxamido)-N-(3-fluoro-5-nitrophenyl)benzamide]	A (80-100)	50 to 100	50 to 100
Nc1cc(F)cc(NC(=O)c2cc(NC(=O)[C@H]3[C@H](c4cc(Cl)cc(Cl)c4)C3(Cl)Cl)ccc2Cl)c1 [F419, N-(3-Amino-5-fluorophenyl)-2-chloro-5-((1R,3R)-2,2-dichloro-3-(3,5-dichlorophenyl)cyclopropane-1-carboxamido)benzamide]	B (More than 0-Less than 80)	50 to 100	50 to 100
Nc1c(F)cc(F)cc1NC(=O)c1cc(NC(=O)[C@H]2[C@H](c3ccc(F)c(Cl)c3)C2(Cl)Cl)ccc1Cl [F420, N-(2-Amino-3,5-difluorophenyl)-2-chloro-5-((1R,3R)-2,2-dichloro-3-(3-chloro-4-fluorophenyl)cyclopropane-1-carboxamido)benzamide]	A (80-100)	50 to 100	50 to 100
Nc1ccc(F)cc1NC(=O)c1cc(NC(=O)[C@H]2[C@H](c3ccc(F)c(Cl)c3)C2(Cl)Cl)ccc1Cl [F421, N-(2-Amino-5-fluorophenyl)-2-chloro-5-((1R,3R)-2,2-dichloro-3-(3-chloro-4-fluorophenyl)cyclopropane-1-carboxamido)benzamide]	A (80-100)	50 to 100	50 to 100
